Experimental data reported in patent publication US20080009418A1, “Selective Inhibitors” (Alchemia LTD., priority 2004, published 2008).

Tests used:
[1] = target: T1, Human Melanocortin (MC3) (Homo sapiens, UniProt P41968); assay: Radioligand binding, human melanocortin MC3 membranes, FlashPlate, [125I]-NDP-αMSH; conditions: compound at 10 μM, [125I]-NDP-αMSH
T1 construct: purchased Perkin Elmer Biosignal
Method in brief: (§1)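 Cloned human receptor membranes were coated onto FlashPlate wells and incubated with radioligand and compound (added from a 0.5 mM DMSO daughter plate) for 1 hour at room temperature in the dark. Scintillation counting gave percent inhibition, with DMSO defining total and reference ligand defining non-specific binding.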

[2] = target: T2, Human melanin-concentrating hormone (MCH1) (Homo sapiens, UniProt Q99705); assay: Radioligand binding, human melanin-concentrating hormone MCH1 membranes, FlashPlate, [125I]-S36057; conditions: compound at 10 μM; for A6: inhibition of radioligand binding, human melanin-concentrating hormone (MCH1): [125I]-S36057
T2 construct: purchased Perkin Elmer Biosignal
T2 sequence (Q99705 whole entry): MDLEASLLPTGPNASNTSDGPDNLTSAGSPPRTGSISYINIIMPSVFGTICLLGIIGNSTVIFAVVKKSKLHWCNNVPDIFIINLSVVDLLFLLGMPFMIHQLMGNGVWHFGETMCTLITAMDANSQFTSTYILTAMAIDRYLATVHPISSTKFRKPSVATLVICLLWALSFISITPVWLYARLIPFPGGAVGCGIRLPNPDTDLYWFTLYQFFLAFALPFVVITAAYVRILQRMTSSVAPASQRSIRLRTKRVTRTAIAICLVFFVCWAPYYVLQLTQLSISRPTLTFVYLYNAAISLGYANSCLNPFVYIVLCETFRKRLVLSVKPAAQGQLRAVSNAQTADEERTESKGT
Method in brief: as §1

[3] = target: T3, Human neuropeptide Y (NPY-Y1) (Homo sapiens, UniProt P25929); assay: Radioligand binding, human neuropeptide Y NPY-Y1 membranes, FlashPlate, [125I]-PYY; conditions: compound at 10 μM, [125I]-PYY
T3 construct: purchased Perkin Elmer Biosignal
T3 sequence (P25929 1-384): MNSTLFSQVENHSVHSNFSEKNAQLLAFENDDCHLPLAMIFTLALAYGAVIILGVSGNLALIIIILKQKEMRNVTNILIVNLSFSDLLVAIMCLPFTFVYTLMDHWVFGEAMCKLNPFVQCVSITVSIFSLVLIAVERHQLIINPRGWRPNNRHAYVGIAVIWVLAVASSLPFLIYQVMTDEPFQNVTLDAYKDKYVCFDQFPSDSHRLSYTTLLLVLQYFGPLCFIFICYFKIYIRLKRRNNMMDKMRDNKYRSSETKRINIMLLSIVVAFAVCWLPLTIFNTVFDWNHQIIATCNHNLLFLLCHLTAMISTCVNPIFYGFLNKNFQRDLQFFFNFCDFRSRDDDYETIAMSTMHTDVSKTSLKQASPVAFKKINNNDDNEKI
Method in brief: as §1

[4] = target: T4, Human δ-opioid (DOP) (Homo sapiens, UniProt P41143); assay: Radioligand binding, human δ-opioid (DOP) membranes, FlashPlate, [3H]-Bremazocine; conditions: compound at 10 μM, [3H]-Bremazocine
T4 construct: purchased Perkin Elmer Biosignal
T4 sequence (P41143 whole entry): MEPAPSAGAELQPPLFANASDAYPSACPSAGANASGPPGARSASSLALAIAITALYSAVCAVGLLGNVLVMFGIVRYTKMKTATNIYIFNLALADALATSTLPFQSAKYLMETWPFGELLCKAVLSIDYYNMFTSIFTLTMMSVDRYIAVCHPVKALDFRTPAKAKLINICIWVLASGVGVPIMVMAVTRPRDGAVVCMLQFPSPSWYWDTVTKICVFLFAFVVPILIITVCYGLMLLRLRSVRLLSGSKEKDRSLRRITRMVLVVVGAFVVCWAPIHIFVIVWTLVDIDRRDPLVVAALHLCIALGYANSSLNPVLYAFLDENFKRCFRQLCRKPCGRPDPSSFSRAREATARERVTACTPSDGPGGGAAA
Method in brief: as §1

[5] = target: T5, Mouse urotensin (mUR2) (Mus musculus, UniProt Q8VIH9); assay: Radioligand binding, mouse urotensin mUR2 membranes, FlashPlate, [125I]-Urotensin II; conditions: compound at 10 μM, [125I]-Urotensin II
T5 construct: purchased Perkin Elmer Biosignal
T5 sequence (Q8VIH9 1-385): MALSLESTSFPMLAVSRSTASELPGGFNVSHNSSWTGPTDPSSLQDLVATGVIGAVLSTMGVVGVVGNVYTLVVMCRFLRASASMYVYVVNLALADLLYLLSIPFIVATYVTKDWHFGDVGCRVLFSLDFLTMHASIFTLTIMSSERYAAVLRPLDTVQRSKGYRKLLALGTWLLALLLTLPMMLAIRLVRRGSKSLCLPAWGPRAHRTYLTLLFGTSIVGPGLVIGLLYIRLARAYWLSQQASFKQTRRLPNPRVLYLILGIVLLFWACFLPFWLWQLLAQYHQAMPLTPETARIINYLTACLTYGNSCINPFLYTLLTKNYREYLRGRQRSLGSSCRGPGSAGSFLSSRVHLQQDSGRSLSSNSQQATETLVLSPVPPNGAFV
Method in brief: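 Cloned mouse urotensin (mUR2) receptor membranes from Perkin Elmer Biosignal were immobilized in FlashPlate microplates using a proprietary coating. Each well got 19.5 μl buffer, then 0.5 μl of DMSO, reference ligand, or compound. Adding 5 μl of [125I]-Urotensin II, diluted to 5× final concentration in binding buffer, started binding. Plates were sealed with TopSeal-A and incubated 1 hour at room temperature in the dark. Wells were counted for 30 seconds each on a TopCount after a 60-second delay, and percentage inhibition was calculated.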

[6] = target: T6, Human μ-opioid (MOP) (Homo sapiens, UniProt P35372); assay: Radioligand binding, human μ-opioid (MOP) membranes, FlashPlate, [3H]-Naloxone; conditions: compound at 10 μM, [3H]-Naloxone
T6 construct: purchased Perkin Elmer Biosignal
T6 sequence (P35372 whole entry): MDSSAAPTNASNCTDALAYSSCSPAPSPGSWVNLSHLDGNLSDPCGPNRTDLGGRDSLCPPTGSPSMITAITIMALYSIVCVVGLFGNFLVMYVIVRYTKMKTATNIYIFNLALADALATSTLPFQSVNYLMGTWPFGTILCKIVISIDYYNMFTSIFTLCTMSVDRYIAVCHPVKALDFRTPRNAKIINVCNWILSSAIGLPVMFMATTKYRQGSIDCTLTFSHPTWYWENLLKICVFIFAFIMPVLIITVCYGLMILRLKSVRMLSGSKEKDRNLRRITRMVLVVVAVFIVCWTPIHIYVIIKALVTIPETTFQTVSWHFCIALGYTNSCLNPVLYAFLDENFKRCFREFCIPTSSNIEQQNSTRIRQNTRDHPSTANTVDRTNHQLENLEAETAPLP
Method in brief: as §1

[7] = target: T7, Human Melanocortin (MC4) (Homo sapiens, UniProt P32245); assay: Radioligand binding, human melanocortin MC4 membranes, FlashPlate, [125I]-NDP-αMSH; conditions: compound at 10 μM, [125I]-NDP-αMSH
T7 construct: purchased Perkin Elmer Biosignal
T7 sequence (P32245 whole entry): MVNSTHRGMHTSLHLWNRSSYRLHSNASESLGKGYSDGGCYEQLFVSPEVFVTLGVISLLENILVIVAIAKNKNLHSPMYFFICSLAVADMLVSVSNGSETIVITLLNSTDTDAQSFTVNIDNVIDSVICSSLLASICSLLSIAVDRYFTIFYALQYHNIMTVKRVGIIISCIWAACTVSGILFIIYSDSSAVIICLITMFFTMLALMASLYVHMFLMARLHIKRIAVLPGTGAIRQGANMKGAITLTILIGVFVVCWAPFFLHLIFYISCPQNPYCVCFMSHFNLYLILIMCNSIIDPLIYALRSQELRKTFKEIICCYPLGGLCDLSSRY
Method in brief: as §1

[8] = target: T8, Human κ-Opioid (KOP) (Homo sapiens, UniProt P41145); assay: Radioligand binding, human κ-opioid (KOP) membranes, filtration, [3H]-Diprenorphine; conditions: compound at 10 μM, [3H]-Diprenorphine
T8 construct: purchased Perkin Elmer Biosignal
T8 sequence (P41145 whole entry): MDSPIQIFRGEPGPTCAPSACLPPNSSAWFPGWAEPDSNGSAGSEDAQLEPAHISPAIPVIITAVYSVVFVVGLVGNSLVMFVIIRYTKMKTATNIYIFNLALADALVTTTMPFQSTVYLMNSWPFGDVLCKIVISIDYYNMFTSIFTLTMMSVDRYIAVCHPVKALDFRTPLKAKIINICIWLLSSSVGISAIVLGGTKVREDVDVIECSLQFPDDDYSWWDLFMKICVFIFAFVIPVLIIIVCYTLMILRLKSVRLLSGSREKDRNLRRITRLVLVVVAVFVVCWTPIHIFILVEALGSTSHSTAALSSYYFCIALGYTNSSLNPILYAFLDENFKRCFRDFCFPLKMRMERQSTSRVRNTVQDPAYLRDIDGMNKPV
Method in brief: (§2)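 Filtration binding on cloned human receptor membranes (1 Unit/well), [125I]-Substance P for NK1 and [3H]-Diprenorphine for KOP, 1 h at room temperature. Filters PEI-presoaked, washed with cold 50 mM Tris-HCl pH 7.4, counted by scintillation; percent inhibition calculated, reference ligand defining non-specific binding.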

[9] = target: T9, Human melanocortin (MC5) (Homo sapiens, UniProt P33032); assay: Radioligand binding, human melanocortin MC5 membranes, FlashPlate, [125I]-NDP-αMSH; conditions: compound at 10 μM, [125I]-NDP-αMSH
T9 construct: purchased Perkin Elmer Biosignal
T9 sequence (P33032 whole entry): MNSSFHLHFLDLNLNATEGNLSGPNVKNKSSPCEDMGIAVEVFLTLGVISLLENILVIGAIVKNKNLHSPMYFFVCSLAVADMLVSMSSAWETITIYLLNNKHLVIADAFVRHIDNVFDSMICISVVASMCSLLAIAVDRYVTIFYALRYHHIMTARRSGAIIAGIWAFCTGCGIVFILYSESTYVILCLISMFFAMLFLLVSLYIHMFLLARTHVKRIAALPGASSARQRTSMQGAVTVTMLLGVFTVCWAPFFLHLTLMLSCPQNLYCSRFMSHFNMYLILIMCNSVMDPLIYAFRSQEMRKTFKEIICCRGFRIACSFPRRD
Method in brief: as §1

[10] = target: T10, Human opioid (ORL1) (Homo sapiens, UniProt P41146); assay: Radioligand binding, human opioid ORL1 membranes, FlashPlate, [125I]-Nociceptin; conditions: compound at 10 μM, [125I]-Nociceptin
T10 construct: purchased Perkin Elmer Biosignal
T10 sequence (P41146 whole entry): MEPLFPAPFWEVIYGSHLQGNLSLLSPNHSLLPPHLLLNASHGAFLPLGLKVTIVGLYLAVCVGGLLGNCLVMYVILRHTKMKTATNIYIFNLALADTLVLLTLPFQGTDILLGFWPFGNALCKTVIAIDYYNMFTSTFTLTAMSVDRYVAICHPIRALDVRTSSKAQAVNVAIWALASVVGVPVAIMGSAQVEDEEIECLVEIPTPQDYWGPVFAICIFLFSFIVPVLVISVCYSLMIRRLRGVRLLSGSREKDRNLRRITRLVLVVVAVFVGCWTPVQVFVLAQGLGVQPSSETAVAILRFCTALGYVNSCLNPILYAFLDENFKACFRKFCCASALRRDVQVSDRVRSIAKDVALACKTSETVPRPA
Method in brief: as §1

[11] = target: T11, Human neurokinin (NK1) (Homo sapiens, UniProt P25103); assay: Radioligand binding, human neurokinin NK1 membranes, filtration, [125I]-Substance P; conditions: compound at 10 μM, [125I]-Substance P
T11 construct: purchased Perkin Elmer Biosignal
T11 sequence (P25103 whole entry): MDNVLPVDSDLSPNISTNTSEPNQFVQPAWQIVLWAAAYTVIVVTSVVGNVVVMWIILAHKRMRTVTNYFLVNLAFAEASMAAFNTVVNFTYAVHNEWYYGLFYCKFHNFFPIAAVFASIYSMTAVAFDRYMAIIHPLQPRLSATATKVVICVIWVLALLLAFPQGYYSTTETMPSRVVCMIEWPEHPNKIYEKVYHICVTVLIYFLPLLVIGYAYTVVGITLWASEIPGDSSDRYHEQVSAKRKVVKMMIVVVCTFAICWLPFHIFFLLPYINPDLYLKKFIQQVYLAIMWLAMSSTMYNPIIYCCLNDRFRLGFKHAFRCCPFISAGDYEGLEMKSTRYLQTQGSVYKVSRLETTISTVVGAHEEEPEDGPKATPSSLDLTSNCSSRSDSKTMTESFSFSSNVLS
Method in brief: as §2

T1 sequence (P41968 whole entry): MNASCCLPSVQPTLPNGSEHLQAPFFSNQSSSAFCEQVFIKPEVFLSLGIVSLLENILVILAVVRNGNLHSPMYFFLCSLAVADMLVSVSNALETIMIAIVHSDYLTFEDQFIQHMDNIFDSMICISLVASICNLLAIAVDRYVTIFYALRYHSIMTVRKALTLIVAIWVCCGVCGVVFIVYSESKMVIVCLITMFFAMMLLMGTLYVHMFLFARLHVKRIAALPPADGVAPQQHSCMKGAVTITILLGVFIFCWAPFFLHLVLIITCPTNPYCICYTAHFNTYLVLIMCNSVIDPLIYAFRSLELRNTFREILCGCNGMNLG

Row | SMILES | A3: inhibition of radioligand binding, human melanocortin (MC3) [1] | A6: inhibition of radioligand binding, human melanin-concentrating hormone (MCH1) [2] | A9: inhibition of radioligand binding, human neuropeptide Y (NPY-Y1) [3] | A1: inhibition of radioligand binding, human δ-opioid (DOP) [4] | A11: inhibition of radioligand binding, mouse urotensin (mUR2) [5] | A7: inhibition of radioligand binding, human μ-opioid (MOP) [6] | A4: inhibition of radioligand binding, human melanocortin (MC4) ([7]; 10 µM) | A2: inhibition of radioligand binding, human κ-opioid (KOP) [8] | A5: inhibition of radioligand binding, human melanocortin (MC5) [9] | A8: inhibition of radioligand binding, human neurokinin (NK1) [11] | A10: inhibition of radioligand binding, human opioid (ORL1) [10] | other results
1 | NCCCC(=O)NC1C(OCc2ccc(Cl)cc2)OC(COCc2ccccc2)C(O)C1OCc1ccc2ccccc2c1 (single isomer, unassigned) [compound 498] | − (“−” indicates less than 50% inhibition at 10 μM) | − (“−” indicates less than 50% inhibition at 10 μM) | − (“−” indicates less than 50% inhibition at 10 μM) | − (“−” indicates less than 50% inhibition at 10 μM) | − (“−” indicates less than 50% inhibition at 10 μM) | − (“−” indicates less than 50% inhibition at 10 μM) | + (“+” indicates greater than 50% inhibition at 10 μM) | − (“−” indicates less than 50% inhibition at 10 μM) | + (“+” indicates greater than 50% inhibition at 10 μM) | + (“+” indicates greater than 50% inhibition at 10 μM) |  | A10: inhibition of radioligand binding, human opioid (ORL1) ([10]; 10 µM): + (“+” indicates greater than 50% inhibition at 10 μM)
2 | NCCC(=O)N[C@H]1C(OCc2ccc3ccccc3c2)O[C@H](COCc2ccc3ccccc3c2)[C@@H](O)[C@@H]1OCc1ccccc1 (stereo partly shown) [compound 448] |  |  |  |  |  |  |  |  |  |  |  | A3: inhibition of radioligand binding ([1]; human MC3 membranes, 10 µM): − (“−” indicates less than 50% inhibition at 10 μM); A6: inhibition of radioligand binding ([2]; [125I]-S36057, human MCH1 membranes, 10 µM): − (“−” indicates less than 50% inhibition at 10 μM); A9: inhibition of radioligand binding ([3]; human NPY-Y1 membranes): − (“−” indicates less than 50% inhibition at 10 μM); A1: inhibition of radioligand binding ([4]; human DOP membranes): − (“−” indicates less than 50% inhibition at 10 μM); A11: inhibition of radioligand binding ([5]; mouse mUR2 membranes): − (“−” indicates less than 50% inhibition at 10 μM); A7: inhibition of radioligand binding ([6]; human MOP membranes): − (“−” indicates less than 50% inhibition at 10 μM); A4: inhibition of radioligand binding ([7]; human MC4 membranes): + (“+” indicates greater than 50% inhibition at 10 μM); A2: inhibition of radioligand binding ([8]; human KOP membranes): − (“−” indicates less than 50% inhibition at 10 μM); A5: inhibition of radioligand binding ([9]; human MC5 membranes): + (“+” indicates greater than 50% inhibition at 10 μM); A10: inhibition of radioligand binding ([10]; human ORL1 membranes, 10 µM): − (“−” indicates less than 50% inhibition at 10 μM); A8: inhibition of radioligand binding ([11]; human NK1 membranes): + (“+” indicates greater than 50% inhibition at 10 μM)
3 | COCC1OC(OCCc2ccccc2)C(NC(=O)CNC(=N)N)C(OCc2ccc(Cl)cc2)C1O (stereo not shown) [compound 220] |  |  |  |  |  |  |  |  |  |  |  | A3: inhibition of radioligand binding ([1]; FlashPlate): + (“+” indicates greater than 50% inhibition at 10 μM); A6: inhibition of radioligand binding ([2]; [125I]-S36057, FlashPlate): − (“−” indicates less than 50% inhibition at 10 μM); A9: inhibition of radioligand binding ([3]; FlashPlate): − (“−” indicates less than 50% inhibition at 10 μM); A1: inhibition of radioligand binding ([4]; FlashPlate): − (“−” indicates less than 50% inhibition at 10 μM); A11: inhibition of radioligand binding ([5]; FlashPlate): − (“−” indicates less than 50% inhibition at 10 μM); A7: inhibition of radioligand binding ([6]; FlashPlate): − (“−” indicates less than 50% inhibition at 10 μM); A4: inhibition of radioligand binding ([7]; FlashPlate): + (“+” indicates greater than 50% inhibition at 10 μM); A2: inhibition of radioligand binding ([8]; filtration): − (“−” indicates less than 50% inhibition at 10 μM); A5: inhibition of radioligand binding ([9]; FlashPlate): + (“+” indicates greater than 50% inhibition at 10 μM); A10: inhibition of radioligand binding ([10]; FlashPlate): − (“−” indicates less than 50% inhibition at 10 μM); A8: inhibition of radioligand binding ([11]; filtration): + (“+” indicates greater than 50% inhibition at 10 μM)
4 | COC[C@H]1OC(OCc2ccc(Cl)cc2)[C@H](NC(=O)CCCN)[C@@H](OCc2ccc(-c3ccccc3)cc2)[C@@H]1O (stereo partly shown) [compound 342] | − (“−” indicates less than 50% inhibition at 10 μM) | − (“−” indicates less than 50% inhibition at 10 μM) | − (“−” indicates less than 50% inhibition at 10 μM) | − (“−” indicates less than 50% inhibition at 10 μM) | − (“−” indicates less than 50% inhibition at 10 μM) | + (“+” indicates greater than 50% inhibition at 10 μM) |  | − (“−” indicates less than 50% inhibition at 10 μM) | − (“−” indicates less than 50% inhibition at 10 μM) | + (“+” indicates greater than 50% inhibition at 10 μM) | − (“−” indicates less than 50% inhibition at 10 μM) | A4: inhibition of radioligand binding, human melanocortin (MC4) [7]: + (“+” indicates greater than 50% inhibition at 10 μM)
5 | N=C(N)NCCC(=O)N[C@H]1C(OCc2ccc(Cl)cc2)O[C@H](COCc2ccccc2)[C@@H](O)[C@@H]1OCc1ccc(Cl)cc1 (stereo partly shown) [compound 525] |  | + (“+” indicates greater than 50% inhibition at 10 μM) | − (“−” indicates less than 50% inhibition at 10 μM) | − (“−” indicates less than 50% inhibition at 10 μM) | − (“−” indicates less than 50% inhibition at 10 μM) | − (“−” indicates less than 50% inhibition at 10 μM) | + (“+” indicates greater than 50% inhibition at 10 μM) |  | + (“+” indicates greater than 50% inhibition at 10 μM) | + (“+” indicates greater than 50% inhibition at 10 μM) | − (“−” indicates less than 50% inhibition at 10 μM) | A3: inhibition of radioligand binding, human melanocortin (MC3) ([1]; 10 µM): + (“+” indicates greater than 50% inhibition at 10 μM); A2: inhibition of radioligand binding, human κ-opioid (KOP) ([8]; 10 µM): + (“+” indicates greater than 50% inhibition at 10 μM)
